Assay results taken from US12433909B2, “Formulations of cyclic macromolecule-based nanoparticles encapsulating small molecules” (Board of Regents of The University of Texas System, priority 2019, dated 2025).
pIC50: −log10 of the molar value. One block for each molecule: values may come before it.

Experiments:
[1] = experimental drug loading in CDN nanoparticles, quantified by absorbance; format: physicochemical; conditions: for drug loading in CDNs 1-3: theoretical loading of 10% (w/w)
Description: Panobinostat-loaded nanoparticles were formulated by doping a given concentration of the drug with CDN in 2.5 vol % DMSO-aqueous medium. Panobinostat was added at different theoretical loadings, and the amount of panobinostat incorporated into the network after thorough washing was quantified by absorbance.
An aqueous dispersion (2.0 mL) of blank CDN nanoparticles (10 mg/mL) was doped with DMSO (50 uL) solution of panobinostat (40 mg/mL; 10% theoretical loading). The aqueous dispersion was left to agitate for 18 h, and subjected to concentration via ultrafiltration through Amicon Ultra-15 centrifugal filters (3 kDa MWCO, […]) for 4, 20 mins spins at 5000 RCF. Aliquots were frozen and lyophilized for later studies.
Drug loading was quantified by absorbance ([…] for quisinostat, panobinostat and dacinostat; 285 nm for givinostat; 365 nm for camptothecin; 550 nm for Nile Red) on a Tecan plate reader. Lyophilized nanoparticles were dissolved at 5 mg/ml in DMSO. Samples were plated in triplicate ([…], nanoparticles and 10 μL DMSO per well) in a clear, flat bottom 96-well assay plate. A control curve was constructed in technical triplicate by adding 40 μL blank nanoparticles per well and spiking with 10 μL of known drug concentration in DMSO. Experimental drug loading was calculated as mass of drug/mass of nanoparticles (w/w %). 40 μL of bortezomib loaded nanoparticles (5 mg/ml aqueous solution) were extracted with 100 μL of ethylacetate. The ethylacetate layer was collected and dried under nitrogen. The contents were dissolved in 40 μL of DMSO and plated in triplicate. A control curve was constructed in technical triplicate by spiking with 10 μL of known drug concentration in DMSO. Absorbance was measured at 285 nm. Experimental drug loading was calculated as mass of drug/mass of nanoparticles (w/w %).

GL261 cells = test: in vitro GL261 cell viability assay (CellTiter-Glo); format: cell-based, murine; conditions: 72 hours of incubation, CDN-4 21% drug loaded
Description: For IC50 experiments, GL261 cells were seeded at […] into 96 well plates containing Dulbecco's Modified Eagle Medium (DMEM) and 10% Fetal Bovine Serum (FBS). Cells were given 4 hours to adhere prior to drug treatments. Free panobinostat, drug-loaded and blank CDN-4 (21% drug loaded) were dispersed in 2.5% DMSO in cell culture media at 10 mg/mL drug concentration. Equivalent doses were added to the 96 well plates at 16 serial dilutions with concentrations from 0-70 μM and incubated at 37° C. with 5% CO2 for 72 hours. Cell viability was determined with an IC50 value obtained from a CellTiter-Glo Luminescence assay and calculated using GraphPad Prism (San Diego, CA USA). For uptake experiments, GL261 cells were seeded at 90,000 cells/1 mL into 48 well plates containing DMEM and 10% FBS. Panobinostat loaded CDN-4 nanoparticles (250 ug) were incubated with cells for 48 hours, after which cells were thoroughly washed, fixed, and counterstained with DAPI. Images were collected on an upright Nilkon Ti2 microscope.

[2] = background statement; cited from earlier work
[3] = mouse, in vivo
Description: All animal procedures were approved by the Institutional Animal Care and Use Committee at University of Texas Health Science at Houston in accordance with all relevant guidelines. Healthy, female NSG mice were used for in vivo experiments. CDN nanoparticles were administered by direct infusion into the cisternal magna. Briefly, mice were anesthetized with isoflurane (2%) and mounted on a stereotaxic frame (Kopf Instruments, Tujunga, CA, USA). With the head tilted forward, an incision was made across the back of the neck and muscles were gentle retracted to expose the atlanto-occipal membrane. A Hamilton syringe (29 gauge needle, 30° bevel tip) in a 2 uL volume delivered over 1 minute at an injection dept of 1 mm. The needle was left in place for an additional 2 minutes to prevent backflow. All animals received a subcutaneous injection of buprenorphine (1 mg/kg) prior to surgery, and other analgesics to control pain. For MTD studies, panobinostat loaded CDN-4 nanoparticles were administered at increasing concentrations. […] For pharmacokinetic studies, mice received CDN-4 nanoparticles at a dose of 560 ug panobinostat and euthanized at specified time points (1, 4, 8, 24, and 48 hours after nanoparticle administration, n=5 mice per time point). One mouse in the 24 hour time point died during surgery, leaving n=4 for that experimental group. […]

drug loading in CDNs 1-3 [1]: loaded particularly well
Compound: CC(C)C[C@H](NC(=O)[C@H](Cc1ccccc1)NC(=O)c1cnccn1)B(O)O [bortezomib]

experimental loading with all the CDNs ([1]; control hydrophilic drug, data not shown): poor experimental loading
Compound: Nc1ccn([C@@H]2O[C@H](CO)[C@@H](O)[C@@H]2O)c(=O)n1 [cytarabine]

drug loading in CDNs 1-3 [1]: loaded particularly well
Compound: O=C(/C=C/c1ccc(CN(CCO)CCc2c[nH]c3ccccc23)cc1)NO [dacinostat]

drug loading in CDNs 1-3 [1]: loaded particularly well
Compound: CCN(CC)Cc1ccc2cc(COC(=O)Nc3ccc(C(=O)NO)cc3)ccc2c1 [givinostat]

Compound: Cc1[nH]c2ccccc2c1CCNCc1ccc(/C=C/C(=O)NO)cc1 [non-CDN-formulated Pb]
pIC50 (GL261 cells): 6.64

Compound: Cc1[nH]c2ccccc2c1CCNCc1ccc(/C=C/C(=O)NO)cc1 [panobinostat]
water solubility [2]: poorly water soluble | panobinostat in plasma [3]: undetectable | pIC50 (GL261 cells; Mus musculus, GL261): 6.77

drug loading in CDNs 1-3 [1]: loaded particularly well
Compound: Cn1cc(CNCC2CCN(c3ncc(C(=O)NO)cn3)CC2)c2ccccc21 [quisinostat]
